Where “and” joins values, the source holds several entries; their conditions need not be identical. Equal entries are not always repeated.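 All cell lines were grown in 96-well plates and treated with compound for 48 hours. Here, GI50 denotes the concentration required for 50% inhibition of growth. TGI denotes the concentration required for complete inhibition of growth.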
Tests used:
Assay in all cases: DTP human tumour cell line panel, 48 h
[1] = tested on: A498 renal
[2] = tested on: LOX IMVI melanoma
[3] = tested on: MCF7 breast
[4] = tested on: NCI-H522 lung
[5] = tested on: OVCAR-3 ovarian
[6] = tested on: OVCAR-5 ovarian
[7] = tested on: PC-3 prostate
[8] = tested on: SK-MEL-5 melanoma
[9] = tested on: SN12C renal
[10] = tested on: UO-31 renal

Structure (SMILES)	GI50 [1]	TGI [1]	GI50 [2]	TGI [2]	GI50 [3]	TGI [3]	GI50 [4]	TGI [4]	GI50 [5]	TGI [5]	GI50 [6]	TGI [6]	GI50 [7]	TGI [7]	GI50 [8]	TGI [8]	GI50 [9]	TGI [9]	GI50 [10]	TGI [10]
O=C(Cc1cc(O)ccc1O)NO	> 100 µM	> 100 µM	28.5 µM	80.9 µM	16.5 µM	34.9 µM	91.7 µM	> 100 µM	16.9 µM	33.3 µM	18.7 µM	34.1 µM	> 100 µM	> 100 µM	> 100 µM	> 100 µM	18.2 µM	33.8 µM	> 100 µM	> 100 µM
O=C(O)c1ccc(CSc2nc3ccccc3[nH]2)cc1	> 100 µM	> 100 µM	> 100 µM	> 100 µM	> 100 µM	> 100 µM	> 100 µM	> 100 µM	> 100 µM	> 100 µM	> 100 µM	> 100 µM	> 100 µM	> 100 µM	> 100 µM	> 100 µM	> 100 µM	> 100 µM	> 100 µM	> 100 µM
O=C(CCN1CCCCC1)c1csc2ccccc12	–	> 100 µM	–	> 100 µM	–	48.1 µM	–	> 100 µM	–	> 100 µM	–	> 100 µM	–	> 100 µM	–	> 100 µM	–	> 100 µM	–	> 100 µM
CC1(C)N=C(N)N=C(N)N1c1ccc(OCC(=O)Nc2ccc(S(=O)(=O)F)cc2Cl)c(Cl)c1	13.3 µM	> 100 µM	1.12 µM	> 100 µM	2.24 µM	> 100 µM	7.09 µM	> 100 µM	5.34 µM	> 100 µM	> 100 µM	> 100 µM	0.65 µM	> 100 µM	1.15 µM	> 100 µM	4.41 µM	> 100 µM	44.7 µM	> 100 µM
CCc1ccc(Oc2c(-c3ccc(OCCc4cccc(C(F)(F)F)c4)cc3O)n[nH]c2C(F)(F)F)cc1	5.93 µM	12.8 µM	1.94 µM	6.89 µM	2.24 µM	7.82 µM	1.88 µM	5.77 µM	1.52 µM	4.66 µM	7.64 µM	14.4 µM	3.7 µM	10.5 µM	5.13 µM	11 µM	2.4 µM	8.35 µM	2.07 µM	8.08 µM
CC(C)(C)N1CC1CNC(=O)C(=O)NCC1CN1C(C)(C)C (stereo not given)	–	> 6.04 µM	–	> 54.1 µM	–	> 100 µM	–	2.15 µM	–	46.1 µM	–	7.56 µM	–	> 100 µM	–	45.2 µM	–	15.7 µM	–	> 21.3 µM
Cn1c2c(c3ccccc31)CCN1C[C@@H]3CCCC[C@H]3C[C@@H]21	2.08 µM	7.07 µM	2.99 µM	> 37.3 µM	3.17 µM	> 72.8 µM	1.74 µM	4.44 µM	1.95 µM	4.74 µM	3.82 µM	> 100 µM	3.31 µM	> 100 µM	1.42 µM	4.07 µM	3.82 µM	> 100 µM	2.2 µM	13.7 µM
CN1C(=O)C(N=Nc2ccc([N+](=O)[O-])cc2)SC1=S (stereo not given)	4.1 µM and 4.16 µM	18.3 µM and 51 µM	2.56 µM and 9.05 µM	48.5 µM and 98.4 µM	6.1 µM and 16.6 µM	> 100 µM	4.52 µM and 3 µM	52.5 µM and 47.9 µM	2.7 µM and 10.9 µM	12.9 µM and 71.9 µM	10.6 µM and 15.4 µM	> 100 µM and 99.6 µM	1.6 µM and 4.65 µM	> 100 µM	7.77 µM and 11.1 µM	28.9 µM and 27 µM	4.39 µM and 9.34 µM	> 100 µM and 75.9 µM	1.26 µM and 3.55 µM	8.82 µM and 74.7 µM
COc1ccc(OC)c(C2=C(c3cn(C)c4ccccc34)C(=O)NC2=O)c1	> 15.6 µM	> 25 µM	> 25 µM	> 25 µM	> 20.7 µM	> 25 µM	> 25 µM	> 25 µM	> 25 µM	> 25 µM	> 25 µM	> 25 µM	> 25 µM	> 25 µM	> 25 µM	> 25 µM	> 25 µM	> 25 µM	> 25 µM	> 25 µM
NC(=O)c1c[nH]c2ncnc(N)c12	22.9 µM	67.4 µM	48.6 µM	> 100 µM	45.4 µM	> 100 µM	> 100 µM	> 100 µM	23.5 µM	> 100 µM	> 100 µM	> 100 µM	30.3 µM	> 100 µM	84.3 µM	> 100 µM	71.6 µM	> 100 µM	22.4 µM	80.9 µM
CC(C)[C@@]12C[C@@H](OC(=O)COC(=O)c3ccccc3)[C@@](C)(O1)[C@@H]1CC[C@@H](C)[C@H]1[C@@H]2OC(=O)/C=C/c1ccccc1	0.153 µM	0.529 µM	> 63.4 µM	> 100 µM	> 65 µM	> 100 µM	> 100 µM	> 100 µM	> 100 µM	> 100 µM	> 100 µM	> 100 µM	22.7 µM	> 100 µM	> 100 µM	> 100 µM	7.35 µM	> 100 µM	0.115 µM	1.66 µM
CNC(=O)/C=C/C1=CN2C(=O)c3ccc(C)c(O)c3NC(OC)C2C1 (stereo not given)	–	0.713 µM	–	4.19 µM	–	16.6 µM	–	< 0.0169 µM	–	0.417 µM	–	> 31 µM	–	0.447 µM	–	0.186 µM	–	12.1 µM	–	0.265 µM
CCOC(=O)c1c(-c2ccccc2)n2c(=O)cc(C)c3c(O)c(O)cc1c32	13 µM	37.6 µM	4.96 µM	22.8 µM	3.28 µM	13.4 µM	3.25 µM	11.6 µM	2.38 µM	17 µM	22.5 µM	46.7 µM	6.94 µM	26 µM	4.44 µM	16.9 µM	10.8 µM	35.1 µM	8.39 µM	38.7 µM
CO/N=C(/C)COc1ccc2c(c1)oc(=O)c1cc(OC)ccc12	> 100 µM	> 100 µM	> 100 µM	> 100 µM	> 100 µM	> 100 µM	> 100 µM	> 100 µM	> 100 µM	> 100 µM	> 100 µM	> 100 µM	> 100 µM	> 100 µM	> 100 µM	> 100 µM	> 100 µM	> 100 µM	73.8 µM	> 100 µM
CC(C)n1cc(-c2ccc3c(c2)N(C)CC3)c2c(NS(=O)(=O)c3ccn(C)n3)ccnc21	36.3 µM	> 100 µM	47.8 µM	> 100 µM	31.5 µM	> 100 µM	49.3 µM	> 100 µM	60.4 µM	> 100 µM	> 100 µM	> 100 µM	45.2 µM	> 100 µM	37.4 µM	> 100 µM	91.8 µM	> 100 µM	31.7 µM	> 100 µM
Cc1c(O)cccc1C(=O)N[C@@H](CSc1ccccc1)[C@H](O)CN1C[C@H]2CCCC[C@H]2C[C@H]1C(=O)NC(C)(C)C	10.5 µM and 4.26 µM	24.9 µM and 15.3 µM	5.27 µM and 5.39 µM	18.8 µM and 15.8 µM	6.22 µM and 3.9 µM	24.4 µM and 15.7 µM	3.06 µM and 2.94 µM	11.7 µM and 13.4 µM	2.62 µM and 5.24 µM	9.46 µM and 16.2 µM	8.95 µM and 6.31 µM	31.6 µM and 19 µM	2.95 µM and 3.94 µM	11.1 µM and > 35.1 µM	3.12 µM and 5.11 µM	13.5 µM and 11.7 µM	4.07 µM and 6.63 µM	12.6 µM and 18.3 µM	3.45 µM and 3.81 µM	16.4 µM and 19.5 µM
COc1cccc2nc(Nc3cccc(NC(=O)c4ccc(N5CCN(C)CC5)c(C(F)(F)F)c4)c3)ccc12	1.8 µM	6.46 µM	0.874 µM	1.57 µM	0.851 µM	1.9 µM	1.04 µM	2 µM	1.21 µM	3.07 µM	1.53 µM	4.99 µM	1.26 µM	4.51 µM	1.52 µM	5.03 µM	1.7 µM	7.47 µM	0.734 µM	1.49 µM
CC(=O)OC1C(O)C(C)OC(OC2C(OC(=O)C3CCC4C(C3)OC3(CC(OC(=O)/C=C/c5ccccc5)C(C)CO3)C43CO3)OC(C)C(O)C2OC(C)=O)C1O (stereo not given)	–	0.188 µM	–	0.0213 µM	–	0.0825 µM	–	0.0156 µM	–	0.0451 µM	–	0.144 µM	–	0.0442 µM	–	0.0155 µM	–	0.125 µM	–	1.6 µM

From PubChem BioAssay (NCI)
